Patent US12534748B2, “Engineered beta-subunit of tryptophan synthase for production of non-canonical amino acids” (California Institute of Technology, priority 2015, dated 2026)
Positions count from the first letter of the chain named.

Assays:
[1] = biological target: T1, Pyrococcus furiosus TrpB variant PfTrpB^4D11 (E17G, I68V, T292S, F274S, T321A), SEQ ID NO: 16 (Pyrococcus furiosus, UniProt Q8U093, E17G/F274S/I68V/T292S/T321A); assay: Tryptophan formation from L-serine and indole, kinetics of PfTrpB^4D11; type: biochemical; conditions: 75° C.
T1 sequence (Q8U093 with tags, fused parts or gaps E17G/I68V/F274S/T292S/T321A): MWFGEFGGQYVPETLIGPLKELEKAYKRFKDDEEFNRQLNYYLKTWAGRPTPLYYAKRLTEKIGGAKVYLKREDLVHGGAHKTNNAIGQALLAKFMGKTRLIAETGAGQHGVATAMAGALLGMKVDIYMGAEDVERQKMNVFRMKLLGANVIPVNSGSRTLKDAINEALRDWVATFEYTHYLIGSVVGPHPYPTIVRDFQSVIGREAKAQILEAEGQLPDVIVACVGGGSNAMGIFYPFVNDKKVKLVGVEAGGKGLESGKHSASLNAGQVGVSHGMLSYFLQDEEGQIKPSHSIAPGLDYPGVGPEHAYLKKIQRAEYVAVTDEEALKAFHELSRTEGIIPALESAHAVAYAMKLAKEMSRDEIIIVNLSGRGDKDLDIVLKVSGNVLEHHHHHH
Procedure: Cloning, Expression, and Purification of PfTrpA and PfTrpB. The genes encoding PfTrpB (UNIPROT ID Q8U093) and PfTrpA (UNIPROT ID Q8U094) were obtained as gBlocks and cloned into pET22(b)+ for expression in E. coli BL21 E. cloni EXPRESS cells (Lucigen). Heterologous protein expression of PfTrpA and PfTrpB was performed in Terrific Broth with 100 μg/mL ampicillin (TBamp) and induced with 500 mM IPTG (final concentration 1 mM). PfTrpB was purified via a HisTrap HP column. PfTrpA was purified via a Q HP HiTrap column (flow-through), followed by ammonium sulfate precipitation, and hydrophobic interaction chromatography on a phenyl Sepharose HP HiTrap column (FIG. 3).
(§1) Kinetics and UV-Vis Spectroscopy.
PfTrpB^4D11 served as template for a final round of random mutagenesis, for which 1,144 clones were screened.

[2] = biological target: T2, Thermotoga maritima TrpB variant TmTrpB^0B2 (P14L, P19G, I69V, L274S, T292S) (Thermotoga maritima, UniProt P50909, I69V/L274S/P14L/P19G/T292S); assay: Tryptophan formation from L-serine and indole, kinetics of TmTrpB^0B2
T2 sequence (P50909 with tags, fused parts or gaps P14L/P19G/I69V/L274S/T292S): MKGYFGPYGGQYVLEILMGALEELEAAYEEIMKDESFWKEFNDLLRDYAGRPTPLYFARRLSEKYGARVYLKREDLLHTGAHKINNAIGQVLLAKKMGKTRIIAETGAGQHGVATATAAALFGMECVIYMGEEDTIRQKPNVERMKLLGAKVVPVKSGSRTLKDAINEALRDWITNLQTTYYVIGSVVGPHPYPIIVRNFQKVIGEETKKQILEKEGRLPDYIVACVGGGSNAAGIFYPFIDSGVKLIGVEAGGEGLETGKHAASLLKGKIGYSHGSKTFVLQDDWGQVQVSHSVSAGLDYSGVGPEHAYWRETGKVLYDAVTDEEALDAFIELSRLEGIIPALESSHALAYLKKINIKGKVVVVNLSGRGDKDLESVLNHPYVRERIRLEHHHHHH
Source text: as §1
Cloning, expression, and purification of the different orthologs.
The next homolog, TmTrpB, was examined.

[3] = biological target: T3, Archaeoglobus fulgidus TrpB variant AfTrpB^0B2 (P25L, E30G, I80V, F285S, T303S, T332A), SEQ ID NO: 22 (Archaeoglobus fulgidus, UniProt O28672, I80V/L285S/P25L/P30G/T303S/T332A); assay: Tryptophan formation from L-serine and indole, kinetics of AfTrpB^0B2
T3 sequence (O28672 with tags, fused parts or gaps P25L/P30G/I80V/L285S/T303S/T332A): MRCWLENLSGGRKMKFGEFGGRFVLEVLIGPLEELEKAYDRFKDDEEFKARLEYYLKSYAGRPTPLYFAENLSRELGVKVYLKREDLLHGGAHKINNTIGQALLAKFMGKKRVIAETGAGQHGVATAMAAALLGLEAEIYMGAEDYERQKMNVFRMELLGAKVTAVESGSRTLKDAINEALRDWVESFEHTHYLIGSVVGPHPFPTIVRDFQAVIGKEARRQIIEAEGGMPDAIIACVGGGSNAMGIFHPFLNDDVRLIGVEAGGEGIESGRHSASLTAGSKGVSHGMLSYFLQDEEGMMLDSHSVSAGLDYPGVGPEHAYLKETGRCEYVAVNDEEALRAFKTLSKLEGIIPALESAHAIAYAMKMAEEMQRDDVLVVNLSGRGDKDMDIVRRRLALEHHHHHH

[4] = biological target: T4, Pyrococcus furiosus TrpB variant M144T N166D (Table 6 prints N166T), SEQ ID NO: 20 (Pyrococcus furiosus, UniProt Q8U093, M144T/N166D); assay: Tryptophan formation from L-serine and indole, kinetics of PfTrpB double mutant
T4 sequence (Q8U093 with tags, fused parts or gaps M144T/N166D): T1 sequence (Q8U093 with tags, fused parts or gaps E17G/I68V/F274S/T292S/T321A) with G17E, V68I, M144T, N166D, S274F, S292T, A321T

c1ccc2[nH]ccc2c1 [indole]
kcat [1]: 2.2 s⁻¹ | Km ([1]; read-out: KM, indole): 11 µM | kcat ([2]; 75° C.): 0.11 s⁻¹ | kcat relative to wild-type activity ([2]; of the wild-type activity): 10% | kcat ([3]; 60° C.): 0.51 s⁻¹ | increase in kcat ([3]; compared to wild type): 7 fold | kcat ([4]; 75° C.): 0.83 s⁻¹ | kcat increase ([4]; M144T and N166D in PfTrpB): at least 2 fold
